One compound from patent publication US11433021B2, “Palonosetron for the treatment or prevention of nausea and vomiting” (ORION CORPORATION, priority 2018, dated 2022) can be followed below.

Data set [1] can be described thus: Bioavailability of palonosetron as ocular drops vs. intravenous administration. In kind it is in vivo, Beagle dogs. On the procedure: Experiment 1. Bioavailability of Palonosetron as Ocular Drops Vs. Intravenous Administration
Bioavailability of palonosetron as ocular drops at the dose of 30 μg/kg was compared to 10 μg/kg intravenous (i.v.) palonosetron in Beagle dogs (n=6). The study was a crossover study with 7 days washout period between the treatment periods. The animals were fasted overnight before dosing by withdrawing the remaining feed (if any) at least 12 h before dosing. On dosing days food was offered approximately at 4 h after dosing (after the 4 h blood sampling).
Palonosetron 30 μg/kg eye drops prepared according to Formulation Example 1 were administered in the eye using a micropipette in an amount of 10 μl/kg (approximately half volume in each eye).
Palonosetron 10 μg/kg intravenous dose was administered in cephalic vein in slow i.v. bolus dosed within 30 seconds.
Blood samples were collected into K2EDTA tubes over a 48 h period after each treatment at the following time points: predose, 5 min, 10 min, 20 min, 30 min, 45 min, 1 h, 1.5 h, 2 h, 4 h, 6 h, 8 h, 12 h, 24 h and 48 h post administration. Aliquots of plasma were prepared and stored frozen until analysis. Palonosetron concentration in plasma was determined using Liquid chromatography-triple quadrupole mass spectrometry. The lower limit of quantification for palonosetron in dog plasma was 0.02 ng/ml.

Data set [2] concerns cisplatin-induced nausea and vomiting. Briefly: Efficacy of palonosetron eye drops in cisplatin-induced nausea and vomiting model. In kind it is in vivo, Beagle dogs. Conditions: n=6; for vomiting episodes: T0-T420 min. On the procedure:
Experiment 3. Efficacy of Palonosetron Eye Drops in Cisplatin-Induced Nausea and Vomiting Model Methods: Six non-naive adult male Beagle dogs were intravenously administered (2 ml/min) cisplatin at 18 mg/m^2 body surface over 20 min. Then, 45 min after the end of the infusion, the dogs received eye drops prepared according to Formulation Example 1 at 30 or 120 μg/kg of palonosetron or its vehicle (0.9% saline, 2% povidone) in a cross-over design. Then, the following parameters were recorded by blinded observers over 15 min periods from TO (end of the infusion of cisplatin) to 420 min (T420) after the end of the infusion of cisplatin: vomiting episodes and nausea-like behaviours including salivation, exaggerated swallowing motions, lip licking, lethargy, restlessness, and turning behaviour signalling that vomiting is imminent. In addition, a visual analogue scale (VAS) from 0 to 100 mm was used to assess the severity of the dogs' nausea-like behaviours (where a score of 0 mm=no nausea and a score of 100 mm=worst possible nausea).

Where [3] appears, read: 30 μg/kg ocular drops (Formulation Example 1), Beagle dogs.

In the case of `O=C1c2cccc3c2[C@H](CCC3)CN1[C@@H]1CN2CCC1CC2` [Palonosetron], in data set [1] (setting [3]), the absorption entry is reported as “fast absorption comparable to intravenous administration”, the elimination phase result is “extended elimination phase”, the eye irritation result was “No significant eye irritation was seen” and the systemic exposure result is reported as “good systemic exposure”. Besides, the bioavailability (commonly the share of a dose that reaches the circulation, judged against a reference dose that is usually intravenous) in data set [1] (dog, other: ocular drops (administered in the eye), 30 μg/kg ocular drops (Formulation Example 1) vs. 10 μg/kg i.v., Beagle dogs (n=6), plasma) was found to be 65.6%. In data set [2] (30 μg/kg eye drops (Formulation Example 1) 45 min after cisplatin 18 mg/m^2 i.v.), the vomiting episodes was 1 vomiting episode in 2 dogs overall. For the same compound, in data set [2] (30 μg/kg eye drops (Formulation Example 1) after cisplatin 18 mg/m^2, mean±SEM), the “VAS AUC (nausea)” value is on record as 320±268 mm*m. In addition, the vomiting episodes entry in data set [2] (120 μg/kg eye drops (Formulation Example 1) 45 min after cisplatin 18 mg/m^2 i.v.) is given as “inhibited vomiting totally”. In data set [2] (120 μg/kg eye drops (Formulation Example 1) after cisplatin 18 mg/m^2, mean±SEM), the “VAS AUC (nausea)” value was found to be 0±0 mm*m.
